{"source": "paper PMC9029893", "about": "(International Journal of Molecular Sciences, 2022)", "key": {"HUVEC cells": {"tested_on": "HUVEC cells", "experiment": "HUVEC integrity in RTCA-DP system (normalized cell index)", "type": "cell-based, human", "method": "The effects of sulfonamides 1–8 on the integrity and barrier properties of HUVEC were examined in real-time using a cell electric impedance monitoring system (Real-Time Cell Analyzer; Roche & ACEA Biosciences, Santa Clara, CA, USA), which is based on tracking electrical impedance signals. Any changes in cell status, adhesion, and morphology are expressed by parameter Cell Index (CI). The experimental protocol has been described previously. Briefly, the cells were seeded at a density of 15,000 cells per well on E-16 plates (Roche & ACEA Biosciences, Santa Clara, CA, USA), and cultured until the cells achieved plateau phase. Then, the medium was discarded from each well, and the solutions of the test compounds dissolved in cell culturing medium (100 μL) or pure medium (100 μL, control) were added. The measurements were then carried out for 48 h. The results are presented as mean ± SD of ‘normalized cell index’ (nCI), which is calculated by the division of a CI value at a certain time point by the CI value at a reference time point. The experiments were conducted in multiplicate (n = 4–6). The method was validated and the coefficient of variability (CV) was calculated as 9.17%–15.2%, depending on the measured time point (n = 6)."}, "[1]": {"tested_on": "tissue plasminogen activator (t-PA) release from HUVEC", "experiment": "t-PA release from HUVEC (ELISA)", "type": "cell-based, human", "conditions": "24 h, HUVEC supernatants", "method": "The influence on tissue plasminogen activator release from HUVECs was assessed using an ELISA kit (Abcam, Cambridge, UK). HUVECs seeded at a density of 10,000 per well on 96-well plates were co-incubated with compounds 1–5 at the concentrations of 0.3 and 1.0 mM for an additional 24 h (37 °C, 5% CO2). The cell supernatants were discarded into Eppendorf tubes and preserved at −20° C until analysis. Before the tests, the samples were thawed at room temperature for 15 min, and diluted 2.5-fold with diluent in Elisa kit. The measurements of t-PA concentrations in cell supernatants were conducted according to the manufacturer’s protocol using 3,3’,5,5’-tetramethylbenzidine (TMB) as a chromogenic substrate. The concentration of t-PA in HUVEC supernatants was determined using a calibration curve (R^2 = 0.9936). The results are presented as mean ± SD, n = 6. The CV for the applied method was 7.21%."}, "[2]": {"tested_on": "clot formation and fibrinolysis in human citrate plasma", "experiment": "Clot formation and fibrinolysis test (CL-test)", "type": "biochemical", "method": "The effects of the […] on overall hemostasis potential by means of clot formation and fibrinolysis test (CL-test) were further tested based on the continuous measurement of the changes in optical transmittance over time, as described by Kostka et al. and Sikora et al.. These experiments were conducted using 470 µL of three-fold diluted human citrate plasma, 10 µL of the tested compounds, and 10 µL t-PA (final concentration in a sample 220 ng/mL). The clot formation was triggered by thrombin (10 µL, final concentration 0.5 IU/mL). The clot formation and lysis curves were determined at a wavelength of 405 nm with a spectrophotometer (Cecil CE 2021; London, UK) with circulating thermostated water (37 °C) and a Model 300 Electronic Stirrer (Rank Brothers Ltd., Cambridge, UK). The experiments were conducted in multiplicate (n = 5–7), and the results are presented as mean ± SD.\nThe received graphs were analyzed using dedicated software to determine the kinetic parameters of clot formation, stabilization, and fibrinolysis. The following parameters of clot formation were determined: Tt—thrombin time (s), Fmax—maximum clotting (%T), Tf—plasma clotting time (s), Fvo—initial plasma clotting velocity (%T/min), Sr—area under the clot formation curve (%Txmin). The parameters of the clot stabilization phase comprised Tc—clot stabilization time (s), Sc—area under the curve of stable clot formation (%Txmin). The parameters of fibrinolysis comprised Lmax—maximum lysis (%T), Tl—fibrinolysis time (s), Lvo—initial clot fibrinolysis velocity (%T/min), Sf—area under the fibrinolysis curve (%Txmin). Additionally, the overall potential of clot formation and fibrinolysis (CLAUC, (%Txmin)) and total time of the process of clot formation and fibrinolysis (T, (s)) were also estimated."}}}
{"compound": "CN(C)C(=N)N=C(N)NS(=O)(=O)C1CCCCC1", "note": "[Compound 3]", "values": [{"measurement": "normalized Cell Index (nCI)", "setting": "HUVEC cells; 0.3 mM, 3 hours", "value": "0.680 ± 0.083"}, {"measurement": "normalized Cell Index (nCI)", "setting": "HUVEC cells; 0.3 mM, 6 hours", "value": "0.837 ± 0.213"}, {"measurement": "normalized Cell Index (nCI)", "setting": "HUVEC cells; 0.3 mM, 12 hours", "value": "0.927 ± 0.212"}, {"measurement": "normalized Cell Index (nCI)", "setting": "HUVEC cells; 0.3 mM, 24 hours", "value": "0.969 ± 0.156"}, {"measurement": "normalized Cell Index (nCI)", "setting": "HUVEC cells; 0.3 mM, 36 hours", "value": "0.714 ± 0.035"}, {"measurement": "normalized Cell Index (nCI)", "setting": "HUVEC cells; 1.0 mM, 3 hours", "value": "0.233 ± 0.039"}, {"measurement": "normalized Cell Index (nCI)", "setting": "HUVEC cells; 1.0 mM, 6 hours", "value": "0.554 ± 0.047"}, {"measurement": "normalized Cell Index (nCI)", "setting": "HUVEC cells; 1.0 mM, 12 hours", "value": "0.616 ± 0.042"}, {"measurement": "normalized Cell Index (nCI)", "setting": "HUVEC cells; 1.0 mM, 24 hours", "value": "0.748 ± 0.061"}, {"measurement": "normalized Cell Index (nCI)", "setting": "HUVEC cells; 1.0 mM, 36 hours", "value": "0.694 ± 0.054"}, {"measurement": "Released t-PA", "setting": "[1]; 0.3 mM", "value": "1550.9 ± 135.2", "unit": "pg/mL"}, {"measurement": "Released t-PA", "setting": "[1]; 1.0 mM", "value": "1267.1 ± 350.6", "unit": "pg/mL"}, {"measurement": "Fmax—maximum clotting", "setting": "[2]; 0.06 mM", "value": "65.40 ± 9.39", "unit": "%T"}, {"measurement": "Fvo—initial plasma clotting velocity", "setting": "[2]; 0.06 mM", "value": "208.17 ± 44.80", "unit": "%T/min"}, {"measurement": "Lmax—maximum lysis", "setting": "[2]; 0.06 mM", "value": "71.38 ± 8.36", "unit": "%T"}, {"measurement": "Lvo—initial clot fibrinolysis velocity", "setting": "[2]; 0.06 mM", "value": "20.38 ± 5.24", "unit": "%T/min"}, {"measurement": "Sc—area under the curve of a stable clot formation", "setting": "[2]; 0.06 mM", "value": "314.15 ± 49.14", "unit": "%T x min"}, {"measurement": "Sf—area under the clot formation curve", "setting": "[2]; 0.06 mM", "value": "48.52 ± 10.81", "unit": "%T x min"}, {"measurement": "Sl (area under the fibrinolysis curve)", "setting": "[2]; 0.06 mM", "value": "156.16 ± 30.07", "unit": "%T x min"}, {"measurement": "S—overall potential of clot formation and fibrinolysis (CLAUC)", "setting": "[2]; 0.06 mM", "value": "521.91 ± 66.81", "unit": "%T x min"}, {"measurement": "Tc—clot stabilization time", "setting": "[2]; 0.06 mM", "value": "279.50 ± 46.51", "unit": "s"}, {"measurement": "Tf—plasma clotting time", "setting": "[2]; 0.06 mM", "value": "57.45 ± 8.71", "unit": "s"}, {"measurement": "Tl—fibrinolysis time", "setting": "[2]; 0.06 mM", "value": "235.33 ± 48.33", "unit": "s"}, {"measurement": "Tt—thrombin time", "setting": "[2]; 0.06 mM", "value": "16.68 ± 3.26", "unit": "s"}, {"measurement": "T—total time of the process of clot formation and fibrinolysis", "setting": "[2]; 0.06 mM", "value": "588.97 ± 87.54", "unit": "s"}, {"measurement": "Fmax—maximum clotting", "setting": "[2]; 0.3 mM", "value": "68.78 ± 4.04", "unit": "%T"}, {"measurement": "Fvo—initial plasma clotting velocity", "setting": "[2]; 0.3 mM", "value": "214.17 ± 32.05", "unit": "%T/min"}, {"measurement": "Lmax—maximum lysis", "setting": "[2]; 0.3 mM", "value": "70.15 ± 3.87", "unit": "%T"}, {"measurement": "Lvo—initial clot fibrinolysis velocity", "setting": "[2]; 0.3 mM", "value": "22.88 ± 8.98", "unit": "%T/min"}, {"measurement": "Sc—area under the curve of a stable clot formation", "setting": "[2]; 0.3 mM", "value": "335.21 ± 50.51", "unit": "%T x min"}, {"measurement": "Sf—area under the clot formation curve", "setting": "[2]; 0.3 mM", "value": "44.41 ± 6.00", "unit": "%T x min"}, {"measurement": "Sl (area under the fibrinolysis curve)", "setting": "[2]; 0.3 mM", "value": "142.20 ± 37.46", "unit": "%T x min"}, {"measurement": "S—overall potential of clot formation and fibrinolysis (CLAUC)", "setting": "[2]; 0.3 mM", "value": "521.82 ± 88.83", "unit": "%T x min"}, {"measurement": "Tc—clot stabilization time", "setting": "[2]; 0.3 mM", "value": "299.50 ± 38.60", "unit": "s"}, {"measurement": "Tf—plasma clotting time", "setting": "[2]; 0.3 mM", "value": "55.13 ± 7.55", "unit": "s"}, {"measurement": "Tl—fibrinolysis time", "setting": "[2]; 0.3 mM", "value": "229.17 ± 48.85", "unit": "s"}, {"measurement": "Tt—thrombin time", "setting": "[2]; 0.3 mM", "value": "16.23 ± 4.22", "unit": "s"}, {"measurement": "T—total time of the process of clot formation and fibrinolysis", "setting": "[2]; 0.3 mM", "value": "600.03 ± 91.80", "unit": "s"}, {"measurement": "Fmax—maximum clotting", "setting": "[2]; 0.6 mM", "value": "66.60 ± 4.00", "unit": "%T"}, {"measurement": "Fvo—initial plasma clotting velocity", "setting": "[2]; 0.6 mM", "value": "211.50 ± 22.76", "unit": "%T/min"}, {"measurement": "Lmax—maximum lysis", "setting": "[2]; 0.6 mM", "value": "67.55 ± 4.50", "unit": "%T"}, {"measurement": "Lvo—initial clot fibrinolysis velocity", "setting": "[2]; 0.6 mM", "value": "23.53 ± 6.67", "unit": "%T/min"}, {"measurement": "Sc—area under the curve of a stable clot formation", "setting": "[2]; 0.6 mM", "value": "323.11 ± 42.53", "unit": "%T x min"}, {"measurement": "Sf—area under the clot formation curve", "setting": "[2]; 0.6 mM", "value": "42.40 ± 3.94", "unit": "%T x min"}, {"measurement": "Sl (area under the fibrinolysis curve)", "setting": "[2]; 0.6 mM", "value": "137.48 ± 23.47", "unit": "%T x min"}, {"measurement": "S—overall potential of clot formation and fibrinolysis (CLAUC)", "setting": "[2]; 0.6 mM", "value": "502.99 ± 64.69", "unit": "%T x min"}, {"measurement": "Tc—clot stabilization time", "setting": "[2]; 0.6 mM", "value": "299.50 ± 40.90", "unit": "s"}, {"measurement": "Tf—plasma clotting time", "setting": "[2]; 0.6 mM", "value": "54.73 ± 5.88", "unit": "s"}, {"measurement": "Tl—fibrinolysis time", "setting": "[2]; 0.6 mM", "value": "234.83 ± 42.86", "unit": "s"}, {"measurement": "Tt—thrombin time", "setting": "[2]; 0.6 mM", "value": "17.17 ± 3.17", "unit": "s"}, {"measurement": "T—total time of the process of clot formation and fibrinolysis", "setting": "[2]; 0.6 mM", "value": "606.23 ± 87.70", "unit": "s"}, {"measurement": "Fmax—maximum clotting", "setting": "[2]; 1.5 mM", "value": "63.60 ± 5.36", "unit": "%T"}, {"measurement": "Fvo—initial plasma clotting velocity", "setting": "[2]; 1.5 mM", "value": "199.50 ± 18.07", "unit": "%T/min"}, {"measurement": "Lmax—maximum lysis", "setting": "[2]; 1.5 mM", "value": "63.92 ± 5.38", "unit": "%T"}, {"measurement": "Lvo—initial clot fibrinolysis velocity", "setting": "[2]; 1.5 mM", "value": "23.50 ± 13.77", "unit": "%T/min"}, {"measurement": "Sc—area under the curve of a stable clot formation", "setting": "[2]; 1.5 mM", "value": "368.60 ± 84.14", "unit": "%T x min"}, {"measurement": "Sf—area under the clot formation curve", "setting": "[2]; 1.5 mM", "value": "47.68 ± 7.07", "unit": "%T x min"}, {"measurement": "Sl (area under the fibrinolysis curve)", "setting": "[2]; 1.5 mM", "value": "143.17 ± 38.79", "unit": "%T x min"}, {"measurement": "S—overall potential of clot formation and fibrinolysis (CLAUC)", "setting": "[2]; 1.5 mM", "value": "559.45 ± 127.25", "unit": "%T x min"}, {"measurement": "Tc—clot stabilization time", "setting": "[2]; 1.5 mM", "value": "355.50 ± 66.77", "unit": "s"}, {"measurement": "Tf—plasma clotting time", "setting": "[2]; 1.5 mM", "value": "62.35 ± 6.00", "unit": "s"}, {"measurement": "Tl—fibrinolysis time", "setting": "[2]; 1.5 mM", "value": "253.17 ± 62.51", "unit": "s"}, {"measurement": "Tt—thrombin time", "setting": "[2]; 1.5 mM", "value": "18.15 ± 4.30", "unit": "s"}, {"measurement": "T—total time of the process of clot formation and fibrinolysis", "setting": "[2]; 1.5 mM", "value": "689.17 ± 134.48", "unit": "s"}]}
